From PubChem BioAssay AID2384 (Southern Research Specialized Biocontainment Screening …, 2010) come the findings set out here.

This experiment relates to S. typhi GFP reporter counter-screen, fluorescence, 4 h. The experiment can be described thus: inhibitors in S. typhi counter-screen strain, dose response, counter-screen for PhoP regulon inhibitor project, fluorescence, 4 h (AID 2384).
As usually defined, the IC50 is the midpoint of a concentration-inhibition curve. Consider `CCN1CCN(Cc2ccc(NC(=O)c3ccc(C)c(NC(=O)c4c[nH]c5cc(C(F)(F)F)ccc5c4=O)c3)cc2C(F)(F)F)CC1`, for which the IC50 is 34.9 µM. On to `Nc1c(Cl)ncnc1N/N=C/c1ccccn1`, for which the IC50 was 32.9 µM. Consider `CC(C(=O)NC1C=CS(=O)(=O)C1)N1C(=O)/C(=C/c2ccc(Cl)cc2)SC1=S` (stereo unspecified), for which the IC50 was 30.3 µM. Consider `C[C@H]1c2cccc(O)c2C(O)=C2C(=O)[C@]3(O)C(O)=C(C(N)=O)C(=O)[C@@H](N(C)C)[C@@H]3[C@@H](O)[C@@H]21`, for which the IC50 was 1.56 µM. `CN(C)CCOCCOc1ccc(Cl)c2ccccc12`: the IC50 is 41.1 µM. Take `COC(=O)C(C)NC(=S)N1CCN(c2c(F)cc3c(=O)c(C(=O)O)cn(C4CC4)c3c2OC)CC1C` (stereo unspecified): the IC50 was 39.6 µM.

Take `O=C(N/N=C/c1ccc(O)c(O)c1)C1c2ccccc2Oc2ccccc21`: the half-maximal inhibitory concentration (IC50) was 64.8 µM. The same measure for `O=C(Nc1nnc(-c2ccco2)o1)c1cccc(Cl)c1`: 43.1 µM.

With `O=C(/C=C/c1ccccc1)c1cc(Br)ccc(=O)c1O`, the IC50 was 21.8 µM. With `COC12C(COC(N)=O)C3=C(C(=O)C(C)=C(N)C3=O)N1CC1C2N1C` (stereo unspecified), the IC50 is 3.12 µM. The same measure for `Cc1ccc2oc(=O)c(/C=C(\O)c3ccccc3)nc2c1`: 64.2 µM; for `CCOc1ccc(-c2cc(C)[n+](CCN(CC)CC)c(-c3ccc(OCC)cc3)c2)cc1`: 26.4 µM; for `O=C(Nc1csc(Cl)c1)c1ccccc1`: 70.6 µM. As to `CCC(C)(C)c1ccc(OCCCC[n+]2ccccc2)c(C(C)(C)CC)c1`, the IC50 is 35.3 µM. Take `CCCCCCCNC(=O)C1(CC2CC(c3ccc(Cl)cc3)=NO2)CCNCC1` (stereo unspecified): the IC50 was 23.8 µM. Regarding `O=C(CSc1ccccn1)Nc1nonc1[N+](=O)[O-]`, the IC50 is 116 µM. Regarding `OCCNc1nc(Nc2ccccc2)nc2ccccc12`, the IC50 is 22.4 µM. In the case of `OC1CNCc2cc3c(cc21)OCCO3` (stereo unspecified), the IC50 is 61.7 µM.

With `Oc1ccc(C[C@@H]2CNCCN2CCCCC2CCCCC2)cc1`, the IC50 is 37.5 µM. For `Cn1c(SCC(=O)N/N=C/c2ccc([N+](=O)[O-])s2)nnc1-c1ccc(Cl)cc1`, the IC50 was 46.2 µM.

`CCOC(=O)N/N=C\c1ccc([N+](=O)[O-])o1`: the IC50 is 31 µM.

Regarding `CCn1cc(C(=O)O)c(=O)c2cnc(N3CCNCC3)nc21`, the IC50 was 50.1 µM. In the case of `CN(C)CCCn1c(SCC(=O)N2c3ccccc3Sc3ccccc32)nc2ccccc2c1=O`, the IC50 was 47.2 µM. For the molecule `N=c1c2c(n(Cc3cccc(Cl)c3)c3c1CCC3)CCCC2`, the IC50 is 47.8 µM. As for `CN1C(=O)NC(c2cccc(O)c2)C(C(=O)c2cccs2)C1(O)C(F)(F)F` (stereo unspecified), the IC50 was 24.6 µM.

As to `CC(C(=O)NC1C=CS(=O)(=O)C1)N1C(=O)/C(=C/c2cccc(Cl)c2)SC1=S` (stereo unspecified), the IC50 is 59.2 µM.

On to `COc1cc([N+](=O)[O-])cc(/C=N/NC(=O)C(O)(c2ccccc2)c2ccccc2)c1O`, for which the IC50 was 80 µM. For the molecule `S=C(Nc1ccc(Cl)c(Cl)c1)NC1CCN(Cc2ccccc2)CC1`, the IC50 was 37.8 µM. Consider `COc1ccc(NC2=NC3(CCCCC3)N=C(N)N2)cc1`, for which the IC50 is 138 µM. For the molecule `O=C1OCCN1/N=C/c1ccc([N+](=O)[O-])o1`, the IC50 is 28.2 µM. Consider `C#CCOCCOCCOCCNc1nc(N2CCN(C(=O)[C@H](Cc3ccc(O)cc3)n3cc([C@@H](N)CC(C)C)nn3)CC2)nc(N2CCN(C(=O)[C@H](Cc3cc4ccccc4[nH]3)n3cc([C@@H](N)CC(C)C)nn3)CC2)n1`, for which the IC50 was 41.8 µM. For `O/N=C/c1ccc(OCc2ccccc2)c(Cl)c1`, the IC50 is 103 µM.

In the case of `O=C(CCN1CCOCC1)c1ccc(Br)cc1`, the IC50 is 72.5 µM. `Oc1c(Br)cc(Br)cc1C=Nc1cccc2ncccc12`: the IC50 is 21.8 µM. The same measure for `CC1CCN(CCOCCOc2ccc(Br)cc2Cl)CC1`: 97.8 µM. For the molecule `O=C(CSc1nc2ccccc2[nH]1)Nc1ccc(F)c(F)c1`, the IC50 is 74.2 µM.

With `C/C(=N\NC(=O)c1cccc(Br)c1)c1ccccn1`, the IC50 was 31.6 µM. For the molecule `O=C(Nc1nnc(-c2ccccn2)o1)c1cccc(Cl)c1`, the IC50 is 91.9 µM. In the case of `Oc1c(Br)cc(Br)cc1C=NCc1ccc(F)cc1`, the IC50 is 46.2 µM. The result for `O=C(Oc1c(Br)cc([N+](=O)[O-])cc1Br)c1cccnc1` reads 28.5 µM. As to `CCN1CCN(Cc2ccc(NC(=O)c3ccc(C)c(NC(=O)C(=O)c4c[nH]c5ccccc45)c3)cc2C(F)(F)F)CC1`, the IC50 was 59.3 µM. `CCn1ncc(/C=N\NC(=O)c2csc3ccccc23)c1C`: the IC50 is 124 µM. `CCCc1nnc(NC(=O)c2cn(CC)c3cc(N4CCN(C)CC4)c(F)cc3c2=O)s1`: the IC50 is 61.6 µM. `CN(C)CCCN1c2ccccc2Sc2ccc(C(F)(F)F)cc21`: the IC50 was 103 µM. `O=C(N/N=C/c1cc(Br)ccc1O)c1ccncc1`: the IC50 was 20.6 µM.

As to `CSc1ccc2c(c1)C(N1CCN(C)CC1)Cc1ccc(F)cc1S2` (stereo unspecified), the IC50 was 23.9 µM.

Take `COc1ccc(C(=O)NNC(=S)NC(=O)c2ccccc2)cc1`: the IC50 is 94 µM. Regarding `Nc1ncncc1-c1ccc(Cl)cc1`, the IC50 is 65.5 µM.

As for `Cc1ccc(OCC(=O)N/N=C/c2ccc([N+](=O)[O-])o2)cc1`, the IC50 was 28.1 µM. The result for `CCCCCCCCCCCCCCCC[N+](C)(C)CCN(Cc1ccc(OC)cc1)c1ncccn1` reads 19.1 µM; that for `CCCCNCCCOc1cccc(Cl)c1Cl`, 58.5 µM. As for `Cc1ccc2nc(/C(C#N)=C\c3ccc([N+](=O)[O-])o3)[nH]c2c1`, the IC50 was 95.9 µM. Turning to `Cc1nc2ccccc2c(N)c1C(=O)/C=C/c1ccccc1`, the IC50 was 101 µM. Consider `COc1c(N2CCN(C(=S)Nc3ccc(F)cc3)C(C)C2)c(F)cc2c(=O)c(C(=O)O)cn(C3CC3)c12` (stereo unspecified), for which the IC50 is 18.3 µM.

With `COc1ccc(OCc2n(CC(=O)OC3CC(C)CCC3C(C)C)c3ccccc3[n+]2C)cc1` (stereo unspecified), the IC50 is 36.6 µM. Take `O=C(N/N=C/c1ccc([N+](=O)[O-])s1)c1cccnc1`: the IC50 is 34.7 µM. Take `O=C(CN1CCCC1)Nc1ccc(-c2nc3cc(NC(=O)CN4CCCC4)ccc3o2)cc1`: the half-maximal inhibitory concentration (IC50) is 57.1 µM. The result for `O=C(N/N=C/c1sc2ccccc2c1O)c1cccc2ccccc12` reads 25.8 µM; that for `O=C(NNC(=S)NC(=O)c1ccccc1)c1ccc(O)cc1`, 51 µM; that for `CCCCC(CC)CN=C(N)NC(N)=NCCCCCCN=C(N)NC(N)=NCC(CC)CCCC` (stereo unspecified), 4.65 µM. The result for `CCCCOc1ccc(C(=O)NNC(=S)NC(=O)CC)cc1` reads 33.6 µM. As to `Oc1ccc(CN2CCCc3ccccc32)c2cccnc12`, the IC50 is 57.2 µM. For the molecule `CC[C@H]1OC(=O)C[C@@H](O)[C@H](C)[C@@H](O[C@@H]2O[C@H](C)C[C@H](N(C)C)[C@H]2O)[C@@H](CC=O)C[C@@H](C)C(=O)C=C[C@]2(C)O[C@H]2[C@@H]1C`, the 50% inhibitory concentration (IC50) was 3.95 µM. The result for `COc1cc2c3cc1Oc1cc(ccc1O)C[C@@H]1c4c(cc(OC)c(O)c4Oc4ccc(cc4)C[C@H]3N(C)CC2)CCN1C` reads 93.4 µM. `COc1c2ccccc2nc2ccccc12`: the IC50 is 40.4 µM. Consider `Cc1ccc(N=Cc2cc(Br)cc(Cl)c2O)cc1`, for which the IC50 was 47.1 µM. The same measure for `CCc1cccc2c1Sc1ccccc1CC2N1CCNCC1` (stereo unspecified): 39.3 µM; for `CC1CCN(CCCCOc2ccc(Cl)cc2)CC1`: 136 µM. Regarding `COc1ccc2[nH]c3c(C)c4ccncc4c(C)c3c2c1`, the IC50 is 21.5 µM. In the case of `CC(NCc1ccccc1O)C12CC3CC(CC(C3)C1)C2` (stereo unspecified), the IC50 is 33.9 µM. For the molecule `Cc1c(CN(C)C)c2c(n1Cc1ccccc1)C(=O)c1ccc(Br)cc1-2`, the half-inhibitory concentration (IC50) is 47.2 µM. On to `O=[N+]([O-])c1cc([N+](=O)[O-])c2cccnc2c1Oc1ccccc1O`, for which the IC50 was 41.7 µM. For the molecule `CCc1ccc(NC(=O)Nc2ccncc2)cc1`, the IC50 was 88.4 µM.

In the case of `O=C(N/N=C/C1CC=CCC1)c1cc(Br)ccc1O` (stereo unspecified), the IC50 is 123 µM. As for `O=C(CN1C2=NCCCN2c2ccccc21)c1ccc(Br)s1`, the IC50 is 40.2 µM. With `Oc1ccc(C2NCc3ccccc3-n3cccc32)cc1Cl` (stereo unspecified), the IC50 was 89 µM. Consider `O=C(N/N=C/c1ccccc1O)c1ccncc1`, for which the concentration for half-maximal inhibition (IC50) was 20.5 µM. The result for `C#CCOCCOCCOCCNc1nc(N2CCN(C(=O)CCCCCCCCCCNC(=O)Cn3cc(CCCCCN)nn3)CC2)nc(N2CCN(C(=O)CCCCCCCCCCNC(=O)[C@@H]([C@H](C)O)n3cc(C)nn3)CC2)n1` reads 115 µM; that for `O=c1[nH]c2ccccc2n2c(=S)[nH]nc12`, 147 µM; that for `Cc1ccc(-c2c[n+](Cc3ccc(Cl)cc3)c3n2CCC3)cc1`, 46 µM. `CSc1ccccc1NC(=O)CN1CCCCC1C` (stereo unspecified): the IC50 is 131 µM. In the case of `Oc1ccccc1-c1cc(C(F)(F)C(F)F)[nH]n1`, the IC50 is 81.2 µM. For the molecule `CN(C)CCNC(=O)/C(=C/c1ccc(-c2ccc(Cl)cc2)o1)NC(=O)c1ccccc1`, the IC50 was 63.1 µM. As to `CC1CCC(C(C)C)C(OC(=O)Cn2c(COc3ccccc3)[n+](C)c3ccccc32)C1` (stereo unspecified), the IC50 was 25.6 µM. As to `CCCCOCCCNc1ncnc2c1[nH]c1ccccc12`, the IC50 is 77.4 µM. As to `Oc1cccc2ccc(Nc3ccccn3)nc12`, the 50% inhibitory concentration (IC50) was 7.38 µM. With `CC[C@H]1OC(=O)[C@H](C)[C@@H](O[C@H]2C[C@@](C)(OC)[C@@H](O)[C@H](C)O2)[C@H](C)[C@@H](O[C@@H]2O[C@H](C)C[C@H](N(C)C)[C@H]2O)[C@](C)(O)C[C@@H](C)CN(C)[C@H](C)[C@@H](O)[C@]1(C)O`, the IC50 is 1.28 µM. As for `CNC(=S)N1CCN(c2c(F)cc3c(=O)c(C(=O)O)cn(C4CC4)c3c2OC)CC1C` (stereo unspecified), the IC50 was 48.2 µM. Turning to `O=C(Oc1ccccc1)c1cc2ccccc2o1`, the IC50 was 97 µM. The same measure for `OCCNc1nc(Nc2ccc(Br)cc2)nc2ccccc12`: 15.9 µM; for `COc1cccc(Nc2nc(NCC3CCCO3)c3ccccc3n2)c1` (stereo unspecified): 31.1 µM.

Consider `CN1CCCN(S(=O)(=O)c2ccc3ccccc3c2)CC1`, for which the IC50 is 46 µM. Regarding `OC(CNCCc1ccc(C(F)(F)F)cc1)COC(c1ccccc1)c1ccccc1` (stereo unspecified), the IC50 is 29.6 µM. `O=C(C[n+]1cc(-c2ccc(Cl)cc2)n2c1CCC2)N1c2ccccc2Sc2ccccc21`: the IC50 is 50.9 µM. Turning to `COc1ccc(CNCC(O)COc2ccc(C)cc2[N+](=O)[O-])cc1` (stereo unspecified), the IC50 was 128 µM. Turning to `CN1CCN(Cc2cc(COCc3ccccc3)c3cccnc3c2O)CC1`, the IC50 is 36.8 µM.
